# Values joined by “and” are separate entries in the source; they are usually repeats but may differ in a detail not shown here. Equal values may be shown once.
# Experiment: CNS penetration: total and unbound drug concentrations in tumor regions, CSF and plasma (LC-MS/MS, equilibrium dialysis);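 further: drug levels in patient tumor tissue from contrast-enhancing and non-enhancing regions sampled under MRI-guided neuronavigation, with plasma and CSF drawn during surgical resection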
# Details: for Everolimus.CSF / Everolimus.Enhancing.tumor / Everolimus.Non-enhancing.tumor / Everolimus.Plasma.conc / Everolimus.Unbound.enhancing / Everolimus.Unbound.non-enhancing / Everolimus.Unbound.plasma: per patient
# [1] = Level 0: Ribociclib 400mg QD + Everolimus 2.5mg QD, sampling 1-3 Hours
# [2] = Level 0: Ribociclib 400mg QD + Everolimus 2.5mg QD, sampling 7-9 Hours
# [3] = Level 0: Ribociclib 400mg QD + Everolimus 2.5mg QD, sampling 23-25 Hours
# [4] = Level 1: Ribociclib 600mg QD + Everolimus 2.5mg QD, sampling 1-3 Hours
# [5] = Level 1: Ribociclib 600mg QD + Everolimus 2.5mg QD, sampling 7-9 Hours
# [6] = Level 2: Ribociclib 600mg QD + Everolimus 5mg QD, sampling 7-9 Hours
# [7] = Level 3: Ribociclib 600mg QD + Everolimus 10mg QD, sampling 7-9 Hours
# [8] = Level 4: Ribociclib 600mg QD + Everolimus 50mg once on Day 5, sampling 7-9 Hours
# [9] = Level 5: Ribociclib 600mg QD + Everolimus 60mg once on Day 5, sampling 7-9 Hours
smiles,measurement,setting,value
"CO[C@H]1C[C@@H]2CC[C@@H](C)[C@@](O)(O2)C(=O)C(=O)N2CCCC[C@H]2C(=O)O[C@H]([C@H](C)C[C@@H]2CC[C@@H](OCCO)[C@H](OC)C2)CC(=O)[C@H](C)/C=C(\C)[C@@H](O)[C@@H](OC)C(=O)[C@H](C)C[C@H](C)/C=C/C=C/C=C/1C [Everolimus, everolimus]","Total everolimus, CSF, MAX",2.5 mg QD 5 days,0.4 nM
same,"Total everolimus, CSF, MIN",2.5 mg QD 5 days,BLQ
same,"Total everolimus, Enhancing tumor, MIN",2.5 mg QD 5 days,BLQ
same,"Total everolimus, Non-enhancing tumor, MIN",2.5 mg QD 5 days,BLQ
same,"Total everolimus, CSF, MAX",5 mg QD 5 days,BLQ
same,"Total everolimus, CSF, MED",5 mg QD 5 days,BLQ
same,"Total everolimus, CSF, MIN",5 mg QD 5 days,BLQ
same,"Total everolimus, CSF, MED",10 mg QD 5 days,1.4 nM
same,"Total everolimus, CSF, MIN",10 mg QD 5 days,BLQ
same,"Total everolimus, Enhancing tumor, MIN",10 mg QD 5 days,BLQ
same,"Total everolimus, CSF, MIN",50 mg single dose,BLQ
same,"Total everolimus, Non-enhancing tumor, MIN",50 mg single dose,BLQ
same,"Total everolimus, CSF, MAX",60 mg single dose,0.57 nM
same,"Total everolimus, CSF, MED",60 mg single dose,0.57 nM
same,"Total everolimus, CSF, MIN",60 mg single dose,BLQ
same,"Total everolimus, CSF, MAX",70 mg single dose,11.4 nM
same,"Total everolimus, CSF, MED",70 mg single dose,6.35 nM
same,"Total everolimus, CSF, MIN",70 mg single dose,BLQ
same,Everolimus.CSF,[1],BLQ
same,Everolimus.Enhancing.tumor,[1],5.92E-03 and 4.32E-03
same,Everolimus.Non-enhancing.tumor,[1],2.88E-03 and BLQ
same,Everolimus.Plasma.conc,[1],0.02558 and 0.00883
same,Everolimus.Unbound.enhancing,[1],BLQ
same,Everolimus.Unbound.non-enhancing,[1],BLQ
same,Everolimus.Unbound.plasma,[1],BLQ
same,Everolimus.CSF,[2],BLQ
same,Everolimus.Enhancing.tumor,[2],BLQ and 1.69E-02
same,Everolimus.Non-enhancing.tumor,[2],BLQ and 2.24E-03
same,Everolimus.Plasma.conc,[2],0.00955 and 0.00618
same,Everolimus.Unbound.enhancing,[2],BLQ
same,Everolimus.Unbound.non-enhancing,[2],BLQ
same,Everolimus.Unbound.plasma,[2],BLQ
same,Everolimus.CSF,[3],BLQ
same,Everolimus.Enhancing.tumor,[3],BLQ and 4.44E-03
same,Everolimus.Non-enhancing.tumor,[3],BLQ and 5.84E-03
same,Everolimus.Plasma.conc,[3],0.00384 and 0.00714
same,Everolimus.Unbound.enhancing,[3],BLQ
same,Everolimus.Unbound.non-enhancing,[3],BLQ
same,Everolimus.Unbound.plasma,[3],BLQ
same,Everolimus.CSF,[4],3.90E-04
same,Everolimus.Enhancing.tumor,[4],4.40E-03
same,Everolimus.Non-enhancing.tumor,[4],4.72E-03
same,Everolimus.Plasma.conc,[4],0.01738
same,Everolimus.Unbound.enhancing,[4],BLQ
same,Everolimus.Unbound.non-enhancing,[4],BLQ
same,Everolimus.Unbound.plasma,[4],BLQ
same,Everolimus.CSF,[5],2.70E-04 and 3.30E-04
same,Everolimus.Enhancing.tumor,[5],8.34E-02 and 9.20E-03
same,Everolimus.Non-enhancing.tumor,[5],3.53E-02 and 8.80E-03
same,Everolimus.Plasma.conc,[5],0.03462 and 0.01401
same,Everolimus.Unbound.enhancing,[5],BLQ
same,Everolimus.Unbound.non-enhancing,[5],BLQ
same,Everolimus.Unbound.plasma,[5],BLQ
same,Everolimus.CSF,[6],BLQ
same,Everolimus.Enhancing.tumor,[6],3.98E-02 and 1.11E-02 and 1.66E-02
same,Everolimus.Non-enhancing.tumor,[6],2.02E-02 and 9.20E-03 and 1.03E-02
same,Everolimus.Plasma.conc,[6],0.0225 and 0.0084 and 0.0281
same,Everolimus.Unbound.enhancing,[6],BLQ
same,Everolimus.Unbound.non-enhancing,[6],BLQ
same,Everolimus.Unbound.plasma,[6],BLQ
same,Everolimus.CSF,[7],BLQ and 2.50E-03 and 3.00E-04
same,Everolimus.Enhancing.tumor,[7],6.13E-02 and 2.67E-02 and BLQ
same,Everolimus.Non-enhancing.tumor,[7],3.33E-02 and 4.50E-03 and 5.00E-03
same,Everolimus.Plasma.conc,[7],0.0311 and 0.0616 and 0.0431
same,Everolimus.Unbound.enhancing,[7],BLQ
same,Everolimus.Unbound.non-enhancing,[7],BLQ
same,Everolimus.Unbound.plasma,[7],BLQ
same,Everolimus.CSF,[8],BLQ and 3.70E-04 and 1.50E-03
same,Everolimus.Enhancing.tumor,[8],5.16E-02 and 5.45E-02 and 7.41E-02
same,Everolimus.Non-enhancing.tumor,[8],2.51E-02 and 6.30E-03
same,Everolimus.Plasma.conc,[8],0.07949 and 0.06123 and 0.063
same,Everolimus.Unbound.enhancing,[8],BLQ
same,Everolimus.Unbound.non-enhancing,[8],BLQ
same,Everolimus.Unbound.plasma,[8],4.59E-04 and 2.99E-04 and 3.00E-04
same,Everolimus.CSF,[9],5.70E-04 and BLQ
same,Everolimus.Enhancing.tumor,[9],8.76E-02 and 3.04E-02 and 9.84E-03
same,Everolimus.Non-enhancing.tumor,[9],3.61E-02 and 1.38E-02 and 1.13E-02
same,Everolimus.Plasma.conc,[9],0.07053 and 0.09226 and 0.06809
same,Everolimus.Unbound.enhancing,[9],BLQ
same,Everolimus.Unbound.non-enhancing,[9],BLQ
